Experiments:
HeLa cells [1] = experiment: [3H]-triptolide competition binding in intact HeLa cells; conditions: for displacement of / competition for [3H]-triptolide binding: 1 or 10 μM unlabeled competitor for 1 h before approx. 30 nM [3H]-triptolide for 1 h
Description: To gain insight into triptolide's mechanism of action Applicant sought to determine its specific binding activity utilizing a system employing [^3H]-triptolide. In addition to competition with 1 μM or 10 μM unlabeled triptolide, Applicant also measured the binding affinities of triptolide analogs (FIG. 3A). These analogs have been previously described and differ structurally from triptolide in the hydrolysis of the 12,13 epoxide (2), and formation of the ketone at the C-14 hydroxyl (3) (FIG. 3A). […] The effective interaction of these analogs with a presumed triptolide binding entity led us to their use in subsequent experiments addressing the mode of triptolide's biological functions.
Labeling studies were performed by the addition of approximately 30 nM [^3H]-triptolide directly into the culture media for one hour at 37° C. For cold competition studies, 1 μM triptolide was incubated with the cells for one hour before or after the addition of [^3H]-triptolide. Triptolide analog studies followed a similar protocol where concentrations used for competition were either 1 or 10 μM added before [^3H]-triptolide. Medium was removed and cells were washed 3× in cold PBS. Total cell lysates were prepared (150 mM NaCl, 50 mM Tris-HCl pH 7.4, 1 mM EDTA, 1% Triton X-100, and Complete™ protease inhibitors (Roche)) and protein was quantitated before measuring the [^3H]-triptolide binding activity via liquid scintillation.

HeLa cells [2] = experiment: HeLa cell viability by trypan blue dye exclusion; type: cell-based
Description: Since extracellular calcium concentration can influence triptolide binding Applicant sought to determine if the presence of calcium influences the rate of triptolide-mediated apoptosis. To first establish the growth rate of HeLa in media±calcium, cell counts were performed over a 72 hour time course. Although calcium-free media caused cells to detach more easily, the overall growth rates were similar where cell doubling occurred every 24 hours on average (FIG. 5B). For triptolide experiments, cells were initially equilibrated in medium±calcium for 16 hours before the addition of 100 nM triptolide. Cell death was assessed by trypan blue dye exclusion at 24, 48, and 72 hours post drug treatment. In the presence of calcium-containing medium, triptolide induced at least 50% cell death by 24 hours with this trend continuing through later time points (FIG. 5C).
Applicant's results have implicated reversible binding of triptolide to a potential binding protein or complex that can be regulated by calcium. To understand if triptolide function is further separable between cell death and NFκB inhibition, Applicant examined the effect of concentration on these two endpoints. HeLa cells were cultured in the presence of 0, 10, 25, 50, or 100 nM of triptolide and separately assessed for cell death or the ability to suppress NFκB transactivation promoted by TNF-α. Following 24-48 hours of culture, viable cells were recovered and counted. Following 24 hours, triptolide concentrations from 25-100 nM caused greater than 50% of the cells to undergo cell death as assessed by detachment, clumping and the failure to exclude trypan blue dye. […] This is consistent with previous studies showing that low doses of triptolide cause cell cycle arrest rather than apoptosis (Kiviharju, et al., 2002, Clin Cancer Res 8, 2666-2674).
Based upon Applicant's studies examining the concentration dependent effect of triptolide on the two measured biological endpoints, cell death and transcriptional repression, Applicant wanted to determine how modulating triptolide's structure may also discriminate between the two pathways. For cell viability assays, HeLa cells were incubated with 0, 0.1, 1, or 10 μM of each analog or triptolide for 24 hours and then counted using trypan blue dye exclusion. […] NFκB transcriptional inhibition was measured using the κB-luciferase assay as previously described following 5 hours of incubation with each analog (0-10 μM) and TNF-α addition.
HeLa cells were incubated in DMEM or SMEM (Gibco) media+10% FBS and maintained at 37° C. in 5% CO2 for all experiments. HeLa cell viability was assessed by trypan blue dye exclusion, as well as by morphological examination (non-viable cells were rounded and detached from culture plate).

NFκB transactivation = experiment: κB-luciferase reporter assay of TNF-α induced NFκB transactivation in HeLa cells; type: cell-based
Description: Having established that triptolide induced cell death is dependent upon free calcium concentration, Applicant next determined whether this was also a requirement for the inhibition of NFκB transcription. HeLa cells were transiently transfected with the κB-luciferase reporter construct for 8 hours before being washed and then cultured in the presence or absence of calcium containing medium for 16 hours. Triptolide (100 nM) was pre-incubated with cells for 1 hour before addition of 15 ng/ml of TNF-α for 4 hours.
As an additional experiment, transcriptional activity was also assessed by site-directed calcium buffering. HeLa cells were co-transfected with the κB-luciferase plasmid as well as one of the following constructs: GFP empty vector, NES-PV-GFP, or NLS-PV-GFP and proper GFP localization was confirmed. […]
NFκB transactivation was examined using the κB-luciferase reporter construct. […] Cells were assessed for NFκB driven luciferase expression after an additional five hours of incubation, at which time TNF-α had induced transcriptional activity by approximately 15-fold in control cells. […] The results thus far support a divergence of triptolide-mediated functions: the pathway regulating growth arrest/death is more sensitive to triptolide and calcium than the mechanism leading to transcriptional repression of NFκB.
A triple κB promoter-Luciferase reporter construct was a gift of Sankar Ghosh (Yale University). […] The transfection efficiency of HeLa was determined to be 80-90%, and all samples were normalized to protein concentration. Luciferase assays were performed using the Firefly luciferase kit as per manufacturer's protocol (Promega) and results obtained on the Wallac Victor2 1420 Multilabel Counter (Perkin Elmer).

Compound | displacement of / competition for [3H]-triptolide binding (HeLa cells [1]) | cell viability versus untreated control (HeLa cells [2]; 0.1 μM, 24 hours) | effect on continued cell growth (HeLa cells [2]; 0.1 μM, out to 72 hours) | cell death (HeLa cells [2]; 1 μM, 24 hours) | effect on NFκB transcriptional activity (NFκB transactivation; 1 μM, 5 hours with TNF-α) | competitive ability for [3H]-triptolide binding compared with triptolide (HeLa cells [1]; 1 μM competitor) | effect on cells at low concentration (HeLa cells [2]; 25 nM) | profile of cell death compared with triptolide (HeLa cells [2]; 0.1-10 μM, 24 hours) | profile of transcriptional repression (NFκB) compared with triptolide (NFκB transactivation; 0.1-10 μM, 5 hours)
CC(C)C1(O)C(O)C2OC23C2(C)CCC4=C(COC4=O)C2CC2OC23C1O (stereo not shown) [analog (2), Triol-Triptolide] | efficiently competes | not different from the untreated control | overall growth suppressive effect | greater than 50% | no effect |  |  |  | 
CC(C)[C@]12O[C@H]1[C@@H]1O[C@@]13[C@@]1(C)CCC4=C(COC4=O)[C@@H]1C[C@@H]1O[C@@]13C2=O [analog (3), Triptonide] | near complete |  |  |  |  | higher competitive ability than triptolide itself | only a growth suppressive effect | mimicked triptolide with no significant difference | mimicked triptolide with no significant difference
